For one series, the system named is serotonin (5-HT) release. Nature of the series: Serotonin (5-HT) release. Conditions: data on file.
In series [1] the test system is dopamine transporter (DAT) / serotonin transporter (SERT). As to conditions: cited from earlier work.
The conditions of series [2]: cited from earlier work; for Tmax (plasma): after administration of 125 mg MDMA to healthy subjects; for elimination half-life: human plasma.
In another series the target is 5-HT2A receptor (Homo sapiens, UniProt P28223).
Series [3] relates to healthy subjects. As to conditions: cited from earlier work; for duration of self-reported effects: MDA 1.4 mg/kg orally, indirect comparison with MDMA from different subjects and studies.
The conditions of series [4]: receptor studies and limited pre-clinical evidence; cited from earlier work.
A further series relates to humans. As to conditions: cited from earlier work.
The subject of series [5] is healthy subjects. As to conditions: cited from earlier work.
Where [6] appears, read: relative dopamine over serotonin transporter inhibition potency ratio, literature values.
[7] abbreviates: vs d-amphetamine, equivalent doses.

Read-outs that look alike come from different tables or passages of the source.

5-HT2A receptor, sequence (P28223 whole entry): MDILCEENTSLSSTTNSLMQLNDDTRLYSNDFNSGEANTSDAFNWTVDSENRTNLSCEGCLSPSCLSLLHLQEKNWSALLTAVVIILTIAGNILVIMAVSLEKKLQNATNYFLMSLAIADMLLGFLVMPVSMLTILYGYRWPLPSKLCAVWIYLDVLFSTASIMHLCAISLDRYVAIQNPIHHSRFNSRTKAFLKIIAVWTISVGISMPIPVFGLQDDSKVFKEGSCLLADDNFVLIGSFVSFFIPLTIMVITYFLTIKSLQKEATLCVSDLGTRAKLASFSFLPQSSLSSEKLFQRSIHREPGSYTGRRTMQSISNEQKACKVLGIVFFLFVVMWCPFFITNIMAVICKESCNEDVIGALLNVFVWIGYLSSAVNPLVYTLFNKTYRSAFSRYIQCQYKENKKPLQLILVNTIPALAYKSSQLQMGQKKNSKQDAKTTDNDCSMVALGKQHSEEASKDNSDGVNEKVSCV

Turning to `CC(N)Cc1ccc2c(c1F)OCO2` (stereo not shown) [2F-MDA], in the series on serotonin (5-HT) release, the 5-HT release result was “release 5-HT”.
With `CC(N)Cc1ccc2occc2c1` (stereo not shown) [5-APB, 5-(2-aminopropyl)-benzofuran], the DAT/SERT ratio in series [1] (setting [6]) is on record as 0.05.
With `CC(N)Cc1cc(F)c2c(c1)OCO2` (stereo not shown) [5F-MDA], in the series on serotonin (5-HT) release, the 5-HT release entry is “release 5-HT”.
As for `CC(N)Cc1ccc2ccoc2c1` (stereo not shown) [6-APB, 6-(2-aminopropyl)-benzofuran], the DAT/SERT ratio in series [1] (setting [6]) is recorded as 0.29.
With `CC(N)Cc1cc2c(cc1F)OCO2` (stereo not shown) [6F-MDA], the 5-HT release entry in the series with serotonin (5-HT) release is listed as “release 5-HT”.
With `CCC(N)Cc1ccc2c(c1)OCO2` (stereo not shown) [BDB, 1-(1,3-benzodioxol-5-yl)-2-aminobutane], in the series on serotonin (5-HT) release, the 5-HT release result is reported as “release 5-HT”.
Regarding `CCC(Cc1ccc2c(c1)OCO2)NC` (stereo not shown) [MBDB, 1-(1,3-benzodioxol-5-yl)-methyl-2-butanamine], the DAT/SERT ratio in series [1] (setting [6]) is reported as 0.09.
In the case of `CC(N)Cc1ccc2c(c1)OCO2` (stereo not shown) [MDA, 3,4-methylenedioxyamphetamine], in series [2], the Tmax (plasma) is 4.7 h and the elimination half-life is 10 to 16 h. The “Peak plasma concentration of MDA relative to that of MDMA” value in series [2] (after administration of MDMA) was 7-10%. In addition, at 5-HT2A receptor (read-out: EC50 of 5-HT2A receptor activation; Rickli et al., 2015b; cited from earlier work), the EC50 was 0.63 µM. The “duration of self-reported effects” value in the series on healthy subjects [3] is “up to 8 hours”. In addition, in the series with healthy subjects [3] (MDA vs MDMA, indirect comparison), the “perceptual changes on the 5-Dimensions of Altered States of Consciousness Scale” value is on record as “greater perceptual changes than MDMA”. In series [1], the DAT/SERT ratio is given as 0.24.
Regarding `NC1Cc2cc3c(cc2C1)OCO3` [MDAI, 5,6-methylenedioxy-2-aminoindane], the DAT/SERT ratio in series [1] was 0.2.
Take `CNC(C)Cc1ccc2c(c1)OCO2` (stereo not shown) [MDMA, 3,4-Methylenedioxymethamphetamine]: in series [2], the Tmax (plasma) is 2.6 h and the elimination half-life is 7 to 10 h. Moreover, on 5-HT2A receptor (Rickli et al., 2015b; read-out: EC50 of 5-HT2A receptor activation; cited from earlier work), the concentration for a half-maximal effect (EC50) is 6.1 µM. In addition, the “duration of self-reported effects” value with healthy subjects [3] was no more than 6 h. The DAT/SERT ratio in series [1] is on record as 0.08.
For `CN[C@H](C)Cc1ccc2c(c1)OCO2` [R(-)-MDMA], in series [4], the “efficacy as a releaser of dopamine” value is reported as “low efficacy” and the hyperthermia result is recorded as “does not produce hyperthermia”.
Take `C[C@@H](Cc1ccccc1)NC(=O)[C@@H](N)CCCCN` [lisdexamfetamine]: the blood pressure increase result in the series with humans (100 mg lisdexamfetamine oral vs d-amphetamine, FIG. 9) is “increased more slowly and later”. Besides, the ratings of liking result with humans (oral, vs equivalent dose of d-amphetamine, FIG. 8) is listed as “lower”. In addition, in the series with healthy subjects [5] (lisdexamfetamine vs d-amphetamine), the “maximal effect (Emax) or area under the effect-time curve (AUEC)” value is recorded as “no differences”. In the series on healthy subjects [5] (setting [7]), the “maximal concentrations of amphetamine” value was “no differences”; the “onset and peak times of the amphetamine concentration-time curve” value was “longer”. Moreover, the “Tonset of blood pressure-time curve” value with healthy subjects [5] (vs d-amphetamine) was “significantly longer”.

One may read the EC50 as the concentration giving half of the maximal effect.

Values taken from patent US20230233688A1, “MDMA PRODRUGS TO ASSIST PSYCHOTHERAPY” (priority 2021, published 2023).
